# Data published in PubChem BioAssay AID588327 (The Scripps Research Institute Molecular Screening Center, 2011).
# The source made the active and inactive calls. The rule behind the calls is not given here.
# Target: Sphingosine 1-phosphate receptor 3 (Homo sapiens) (UniProt Q99500)
# Assay: binders competing with S1P at S1P3 – cell-based, [33P]S1P, radiometric, dose response, mechanism study for S1P3 agonist project, late-stage follow-up (AID 588327)
# Settings: S1P3 membranes, [33P]S1P competition binding, CPM
# Sequence of Sphingosine 1-phosphate receptor 3 (Homo sapiens) (Q99500 whole entry, looked up): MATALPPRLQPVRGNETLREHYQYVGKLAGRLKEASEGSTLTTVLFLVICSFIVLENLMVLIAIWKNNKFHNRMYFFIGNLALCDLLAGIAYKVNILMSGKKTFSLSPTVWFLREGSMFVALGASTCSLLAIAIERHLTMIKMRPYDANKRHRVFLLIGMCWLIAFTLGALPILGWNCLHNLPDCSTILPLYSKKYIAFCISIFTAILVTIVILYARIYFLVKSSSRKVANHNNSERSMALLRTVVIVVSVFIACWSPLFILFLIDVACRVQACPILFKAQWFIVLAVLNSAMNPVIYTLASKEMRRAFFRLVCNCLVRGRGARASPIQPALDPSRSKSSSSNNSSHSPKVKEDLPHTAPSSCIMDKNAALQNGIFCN
smiles,measurement,value
O=C(c1cc(C2CC2)on1)N(C1CCCCC1)C1CCCCC1,IC50,> 10 µM (inactive)
